pEC50: −log10 of the molar value.
How the values were obtained:
[1] = tested on: HEL cells; experiment: Evaluation of cytotoxicity to HEL cells by LDH release assay; assay type: cell-based, human; details: 37° C. for 5 days, concentrations of at least up to 10 μM, FIG. 3
Procedure: Using the compound obtained as mentioned above (the compound of the present invention), tricin and flavopiridol, the cytotoxicity to the HEL cells was evaluated in accordance with the following procedure. Flavopiridol is a control compound in this Test Example, which is known to have toxicity although it functions as an antiviral agent.
The HEL cells were cultured at 37° C. for 5 days in the presence or absence of the above each compound. The proportion of viable cells after culture was calculated by the LDH release assay. The kit (trade name “Cyto Tox 96 (registered trademark) assay”, manufactured by Promega Corporation) was used for the assay. The test was repeated three times, and data were represented as mean±SD.

[2] = tested on: Towne strain of human cytomegalovirus (HCMV); experiment: Evaluation of antiviral activity: viral load of HCMV-infected HEL cells by the plaque method; assay type: cell-based; details: for pEC50: Human betaherpesvirus 5, HEL, 144 h, read-out: EC50 value (anti-HCMV effect)
Procedure: Diploid fibroblasts derived from human embryonic lung (Human embryonic lung fibroblasts; HEL cells) cultured in a 9.6 cm^2 petri dish until they became confluent using Dulbecco's Modified Eagle Medium (DMEM) to which 8% fetal calf serum (FCS) was added were prepared. The HEL cells were adsorbed and infected with a Towne strain of human cytomegalovirus (HCMV) with a multiplicity of infection (MOI) of 1, and cultured at 37° C. for 1 hour to obtain HCMV-infected cells.
The compound of the present invention or tricin which were serially diluted with dimethyl sulfoxide (compound concentration: 0.001, 0.01, 0.1, 1 and 10 μM) was added to the above HCMV-infected cells and cultured for 6 days. The number of infectious HCMV particles produced in the culture supernatant (viral load) was determined by the plaque method.
The plaque method was performed in the following manner. After the HEL cells cultured in a 24-well plate until they became confluent were adsorbed and infected with the culture supernatant which was 10-fold serially diluted at 37° C. for 1 hour, the 2% FCS and 0.4% agar-containing DMEM media were overlaid and then cultured. Several days (6 to 12 days) after the initiation of culture, the number of plaques appeared was counted under a microscope, and the viral load was measured.
A lower value of the relative value (the viral load against control) means a higher antiviral activity.
Using the compound obtained as mentioned above (the compound of the present invention), tricin and ganciclovir, the antiviral activity of each compound was evaluated in the same manner as in the above <Evaluation of Antiviral Activity—1>.

Row | SMILES | cytotoxicity (proportion of viable cells) [1] | antiviral activity (viral load against control) ([2]; FIG. 1, compared with tricin, clearly observed at 0.001 to 1.000 μM) | antiviral activity (viral load against control) ([2]; FIG. 2, compared with tricin and ganciclovir, clearly observed at 0.1 to 1,000 nM) | pEC50 [2] | anti-HCMV effect higher than that of ganciclovir ([2]; from EC50 values, versus ganciclovir) | anti-HCMV effect higher than that of tricin ([2]; from EC50 values, versus tricin)
1 | COc1cc(-c2cc(=O)c3ccc(F)cc3o2)cc(OC)c1O [the compound of the present invention, 7-fluoro-4′-hydroxy-3′,5′-dimethoxyflavone] | no cytotoxicity | remarkably higher antiviral activity than tricin | remarkably higher antiviral activity than tricin and ganciclovir | 9.89 | about 200 fold | about 400 fold
2 | COc1cc(-c2cc(=O)c3c(O)cc(O)cc3o2)cc(OC)c1O [tricin, 4′,5,7-trihydroxy-3′,5′-dimethoxyflavone, reference compound] |  |  |  | 7.27 |  | 
3 | Nc1nc(O)c2ncn(COC(CO)CO)c2n1 [ganciclovir, reference compound] |  |  |  | 7.56 |  | 

Source: patent US20200079750A1, “COMPOUND OR SALT THEREOF, ANTIVIRAL AGENT, AND PHARMACEUTICAL COMPOSITION” (priority 2017, published 2020)
